Results from US8748625B2, “Crystalline forms of 3-[5-(2-fluorophenyl)-[1,2,4]oxadiazol-3-yl]-benzoic acid” (PTC Therapeutics, Inc., priority 2006, dated 2014).
“Also recorded” adds a separate entry of the source.

Experiments:
Assay type in all cases: physicochemical
[1] = Dynamic vapor sorption (DVS) hygroscopicity; details: for hygroscopicity: DVS isotherm
Method: Form A of 3-[5-(2-fluorophenyl)-[1,2,4]oxadiazol-3-yl]-benzoic acid was evaluated for hygroscopicity. Dynamic vapor sorption (DVS) analysis of moisture uptake and moisture release as a function of relative humidity (RH) were obtained upon cycling between 5% and 95% RH. […] Accordingly, in certain embodiments, Form A is non-hygroscopic.
Moisture sorption/desorption data were collected on a VTI SGA-100 Vapor Sorption Analyzer. Sorption and desorption data were collected over a range of 5% to 95% relative humidity (RH) at 10% RH intervals under a nitrogen purge. Samples were not dried prior to analysis. Equilibrium criteria used for analysis were less than 0.0100% weight change in 5 minutes, with a maximum equilibration time of 3 hours if the weight criterion was not met. Data were not corrected for the initial moisture content of the samples. NaCl and PVP were used as calibration standards.

[2] = Physical stability on slurrying in solvents
[3] = Physical stability on storage at controlled relative humidity; details: stored 6 days
Method: 3-[5-(2-fluorophenyl)-[1,2,4]oxadiazol-3-yl]-benzoic acid (UNMEASURED QUANTITY; FORM B) was stressed in 75% relative humidity at 40° C. for six days.

[4] = Physical stability on milling / micronization; details: for physical stability when milled: milled at ambient and at sub-ambient temperatures
[5] = Physical stability under compression

hygroscopicity [1]	physical stability when slurried ([2]; in 1-BuOH for 4 days at ambient temperature)	physical stability when slurried ([2]; in chloroform for 2 days at 50° C.)	physical stability when slurried ([2]; in dichloromethane for 2 days at 50° C.)	physical stability on storage ([3]; 50% RH at 60° C.)	physical stability on storage ([3]; 53% RH at 40° C.)	physical stability on storage ([3]; 79% RH at 60° C.)	physical and chemical stability upon micronization ([4]; micronization (particle size reduction))	physical stability when milled [4]	physical stability when slurried ([2]; 1 day at ambient temperature in a 1:1 mixture of THF and heptane)	physical stability when slurried ([2]; in a 1:1 mixture of dioxane and water)	physical stability when slurried ([2]; in methyl isobutyl ketone)	physical stability under compression ([5]; compression alone)	physical stability under compression ([5]; compression in the presence of a 1:1 mixture of t-BuOH and water)	SMILES	maximum moisture uptake (DVS) ([1]; cycling between 5% and 95% RH)	physical stability on storage ([3]; 75% RH at 40° C.)
substantially non-hygroscopic	physically stable	physically stable	physically stable	physically stable	physically stable	physically stable	physically and chemically stable	physically stable						O=C(O)c1cccc(-c2noc(-c3ccccc3F)n2)c1 [Form A, 3-[5-(2-fluorophenyl)-[1,2,4]oxadiazol-3-yl]-benzoic acid]	about 0.06 % of the total mass of the sample	physically stable
substantially non-hygroscopic				physically stable	physically stable	partial conversion to Form A		conversion from Form B to Form A	physically stable	conversion of Form B to Form A	conversion of Form B to Form A	physically stable	physically stable	O=C(O)c1cccc(-c2noc(-c3ccccc3F)n2)c1 [Form B, 3-[5-(2-fluorophenyl)-[1,2,4]oxadiazol-3-yl]-benzoic acid]		physically stable; also recorded: characterized by XRPD as Form B
